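Compound exposure: 48 hours, 5 concentrations, 96-well plates. GI50 is the concentration that inhibits growth by half. At the TGI there is no net growth.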
What was measured:
Assay in all cases: DTP human tumour cell line panel, 48 h
OVCAR-8 ovarian = test system: OVCAR-8 ovarian
HL-60(TB) leukemia = test system: HL-60(TB) leukemia
SR leukemia = test system: SR leukemia
NCI/ADR-RES ovarian = test system: NCI/ADR-RES ovarian
COLO 205 colon = test system: COLO 205 colon
HS 578T breast = test system: HS 578T breast
UO-31 renal = test system: UO-31 renal
NCI-H226 lung = test system: NCI-H226 lung
SK-MEL-5 melanoma = test system: SK-MEL-5 melanoma
MALME-3M melanoma = test system: MALME-3M melanoma
M14 melanoma = test system: M14 melanoma
SNB-75 CNS = test system: SNB-75 CNS
SK-OV-3 ovarian = test system: SK-OV-3 ovarian
ACHN renal = test system: ACHN renal
MOLT-4 leukemia = test system: MOLT-4 leukemia
SN12C renal = test system: SN12C renal
SNB-19 CNS = test system: SNB-19 CNS
CAKI-1 renal = test system: CAKI-1 renal
HCT-116 colon = test system: HCT-116 colon
UACC-62 melanoma = test system: UACC-62 melanoma
U251 CNS = test system: U251 CNS
SK-MEL-28 melanoma = test system: SK-MEL-28 melanoma
DU-145 prostate = test system: DU-145 prostate
SF-539 CNS = test system: SF-539 CNS
HCT-15 colon = test system: HCT-15 colon
OVCAR-3 ovarian = test system: OVCAR-3 ovarian
786-0 renal = test system: 786-0 renal
HOP-62 NSCLC = test system: HOP-62 NSCLC
BT-549 breast = test system: BT-549 breast
MDA-MB-435 = test system: MDA-MB-435
RPMI-8226 leukemia = test system: RPMI-8226 leukemia
MCF7 breast = test system: MCF7 breast
TK-10 renal = test system: TK-10 renal
MDA-MB-231 breast = test system: MDA-MB-231 breast
HOP-92 NSCLC = test system: HOP-92 NSCLC
A498 renal = test system: A498 renal
NCI-H522 lung = test system: NCI-H522 lung
CCRF-CEM leukemia = test system: CCRF-CEM leukemia
OVCAR-4 ovarian = test system: OVCAR-4 ovarian
KM12 colon = test system: KM12 colon
HCC-2998 colon = test system: HCC-2998 colon
NCI-H23 lung = test system: NCI-H23 lung
K-562 leukemia = test system: K-562 leukemia
SK-MEL-2 melanoma = test system: SK-MEL-2 melanoma
UACC-257 melanoma = test system: UACC-257 melanoma
T-47D breast = test system: T-47D breast
HT29 colon = test system: HT29 colon
LOX IMVI melanoma = test system: LOX IMVI melanoma
A549 NSCLC = test system: A549 NSCLC
SW-620 colon = test system: SW-620 colon
SF-295 CNS = test system: SF-295 CNS
NCI-H460 lung = test system: NCI-H460 lung
SF-268 CNS = test system: SF-268 CNS
EKVX NSCLC = test system: EKVX NSCLC
IGROV1 ovarian = test system: IGROV1 ovarian

O=C(/C=C/c1cccc(O)c1)c1cccc(-n2cc(-c3ccc(Cl)cc3)[nH]c2=O)c1
GI50 (OVCAR-8 ovarian): 998 nM | TGI (OVCAR-8 ovarian): > 100 µM | GI50 (HL-60(TB) leukemia): 1090 nM | TGI (HL-60(TB) leukemia): 3.51 µM | GI50 (SR leukemia): 217 nM | TGI (SR leukemia): 1070 nM | GI50 (NCI/ADR-RES ovarian): 2200 nM | TGI (NCI/ADR-RES ovarian): 5.96 µM | GI50 (COLO 205 colon): 2290 nM | TGI (COLO 205 colon): 4.95 µM | GI50 (HS 578T breast): 4 µM | TGI (HS 578T breast): 44 µM | GI50 (UO-31 renal): 558 nM | TGI (UO-31 renal): 3.46 µM | GI50 (NCI-H226 lung): 2310 nM | TGI (NCI-H226 lung): 5.5 µM | GI50 (SK-MEL-5 melanoma): 1530 nM | TGI (SK-MEL-5 melanoma): 3.36 µM | GI50 (MALME-3M melanoma): 1830 nM | TGI (MALME-3M melanoma): 6.16 µM | GI50 (M14 melanoma): 2010 nM | TGI (M14 melanoma): 4.44 µM | GI50 (SNB-75 CNS): 1460 nM | TGI (SNB-75 CNS): 3.04 µM | GI50 (SK-OV-3 ovarian): 4.22 µM | TGI (SK-OV-3 ovarian): 17.2 µM | GI50 (ACHN renal): 1840 nM | TGI (ACHN renal): 4.13 µM | GI50 (MOLT-4 leukemia): 535 nM | TGI (MOLT-4 leukemia): 6.31 µM | GI50 (SN12C renal): 1950 nM | TGI (SN12C renal): 5.93 µM | GI50 (SNB-19 CNS): 1920 nM | TGI (SNB-19 CNS): 4.37 µM | GI50 (CAKI-1 renal): 1720 nM | TGI (CAKI-1 renal): 4.07 µM | GI50 (HCT-116 colon): 1230 nM | TGI (HCT-116 colon): 2520 nM | GI50 (UACC-62 melanoma): 1850 nM | TGI (UACC-62 melanoma): 4.27 µM | GI50 (U251 CNS): 588 nM | TGI (U251 CNS): 2150 nM | GI50 (SK-MEL-28 melanoma): 3.64 µM | TGI (SK-MEL-28 melanoma): 15.9 µM | GI50 (DU-145 prostate): 1680 nM | TGI (DU-145 prostate): 4.18 µM | GI50 (SF-539 CNS): 1680 nM | TGI (SF-539 CNS): 3.22 µM | GI50 (HCT-15 colon): 2340 nM | TGI (HCT-15 colon): 10.5 µM | GI50 (OVCAR-3 ovarian): 1560 nM | TGI (OVCAR-3 ovarian): 3.44 µM | GI50 (786-0 renal): 1570 nM | TGI (786-0 renal): 2990 nM | GI50 (HOP-62 NSCLC): 2360 nM | TGI (HOP-62 NSCLC): 4.88 µM | GI50 (BT-549 breast): 1450 nM | TGI (BT-549 breast): 3.72 µM | GI50 (MDA-MB-435): 2060 nM | TGI (MDA-MB-435): 6.64 µM | GI50 (RPMI-8226 leukemia): 1550 nM | TGI (RPMI-8226 leukemia): 4.64 µM | GI50 (MCF7 breast): 1290 nM | TGI (MCF7 breast): 3.76 µM | GI50 (TK-10 renal): 2830 nM | TGI (TK-10 renal): 9.13 µM | GI50 (MDA-MB-231 breast): 3.35 µM | TGI (MDA-MB-231 breast): 17.3 µM | GI50 (HOP-92 NSCLC): 1600 nM | TGI (HOP-92 NSCLC): 5.41 µM | GI50 (A498 renal): 3.71 µM | TGI (A498 renal): 16.1 µM | GI50 (NCI-H522 lung): 1650 nM | TGI (NCI-H522 lung): 4.36 µM | GI50 (CCRF-CEM leukemia): 1760 nM | TGI (CCRF-CEM leukemia): 9.97 µM | GI50 (OVCAR-4 ovarian): 2210 nM | TGI (OVCAR-4 ovarian): 8.96 µM | GI50 (KM12 colon): 1340 nM | TGI (KM12 colon): 3 µM | GI50 (HCC-2998 colon): 13.7 µM | TGI (HCC-2998 colon): 27.6 µM | GI50 (NCI-H23 lung): 2780 nM | TGI (NCI-H23 lung): 10.6 µM | GI50 (K-562 leukemia): 405 nM | TGI (K-562 leukemia): 3.63 µM | GI50 (SK-MEL-2 melanoma): 2070 nM | TGI (SK-MEL-2 melanoma): 4.67 µM | GI50 (UACC-257 melanoma): 4.07 µM | TGI (UACC-257 melanoma): 26.3 µM | GI50 (T-47D breast): 1920 nM | TGI (T-47D breast): 6.03 µM | GI50 (HT29 colon): 1900 nM | TGI (HT29 colon): 3.99 µM | GI50 (LOX IMVI melanoma): 1570 nM | TGI (LOX IMVI melanoma): 3.11 µM | GI50 (A549 NSCLC): 3.55 µM | TGI (A549 NSCLC): > 100 µM | GI50 (SW-620 colon): 1620 nM | TGI (SW-620 colon): 4.74 µM | GI50 (SF-295 CNS): 1790 nM | TGI (SF-295 CNS): 3.88 µM | GI50 (NCI-H460 lung): 2410 nM | TGI (NCI-H460 lung): 5.99 µM | GI50 (SF-268 CNS): 1780 nM | TGI (SF-268 CNS): 3.94 µM | GI50 (EKVX NSCLC): 2400 nM | TGI (EKVX NSCLC): 9.62 µM | GI50 (IGROV1 ovarian): 1920 nM | TGI (IGROV1 ovarian): 6.38 µM

Reference: PubChem BioAssay (NCI)
